According to patent US20210283261A1, “Compositions and Methods for Treating ALK-Mediated Cancer” (ICAHN SCHOOL OF MEDICINE AT MOUNT SINAI, priority 2017, published 2021):

Assays:
[1] = test system: ALK; test: Characterization of ALK degraders in ALCL and NSCLC cells (summary); type: cell-based; settings: summary statement
Source text: Specific exemplary ALK degraders/disruptors were characterized in various different anaplastic large cell lymphoma (ALCL) cells and non-small cell lung cancer (NSCLC) cells (Examples 4-19, FIGS. 1-18). […] This efficacy in suppressing ALK expression and ALK activity correlated with efficacy in inhibiting cancer cell proliferation.

[2] = target: T1, EML4-ALK v3 fusion protein (Homo sapiens, UniProt Q9UM73); test: Western blot of EML4-ALK v3 fusion protein levels in NCI-H2228 cells; type: cell-based; settings: for effect on EML4-ALK fusion protein levels, time dependence: NCI-H2228 cells, 0, 2, 4, 8, 16 and 24 h; for effect on EML4-ALK fusion protein levels, concentration dependence: NCI-H2228 cells, 1, 3, 10, 30 or 100 nM, 16 h
T1 construct: endogenous in cells; host or cells: NCI-H2228
Experimental: Cells were cultured in a 37° C. incubator with 5% CO2.
Cells were washed with cold PBS once and lysed in 1× Laemmli loading buffer directly. […] Membrane was blocked in 5% milk in Tris-buffered saline and Tween 20 (TBST) for 1 h at room temperature, followed by incubation with a primary antibody overnight at 4° C., and a horseradish peroxidase (HRP)-conjugated secondary antibody for 1 h at room temperature. The membrane was imaged by a ChemiDoc MP imaging system (BIO-RAD). Antibodies against GAPDH (abeam), Phospho-ALK (Tyr1507), ALK (Cell Signaling Technology), Tubulin (Santa Cruz) were purchased commercially.
Cells were 70% confluent and treated with DMSO or indicated serial dilutions of compounds for 16 h. The EML4-ALK fusion protein levels were determined by Western blot and normalized against GPADH (right panel).

[3] = target: T2, NPM-ALK fusion protein (Homo sapiens, UniProt Q9UM73); test: Western blot of NPM-ALK fusion protein levels in SU-DHL-1 cells; type: cell-based; settings: for effect on NPM-ALK fusion protein levels, time dependence: SU-DHL-1 cells, 0, 2, 4, 8, 16 and 24 h; for Dmax at 0.03 µM / reversibility of induced ALK fusion protein degradation after washout / rescue of induced NPM-ALK degradation by pomalidomide, MLN4924 and MG-132: SU-DHL-1 cells; for Dmax at 0.03 µM: 30 nM, Western blot, read-out: ALK fusion protein degradation, SU-DHL-1 (30 nM); for reversibility of induced ALK fusion protein degradation after washout: 100 nM for 2 h, PBS wash, fresh medium; for effect on NPM-ALK fusion protein levels, concentration dependence: SU-DHL-1 cells, 1, 3, 10, 30 or 100 nM; for rescue of induced NPM-ALK degradation by pomalidomide, MLN4924 and MG-132: 2 h pre-treatment, then 100 nM compound for 6 h
T2 construct: endogenous in cells; host or cells: SU-DHL-1; the other entry of the earlier key: NPM1 (P06748, Nucleophosmin)
How it was run: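 SU-DHL-1 cells treated with DMSO or compound serial dilutions for 16 h, or at 30 nM or 100 nM for varying times. NPM-ALK and phospho-ALK (Tyr1507) levels measured by Western blot and normalized to GAPDH.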

[4] = test system: SU-DHL-1 cells; test: Cell viability assay in SU-DHL-1 cells; type: cell-based; settings: for cell viability inhibition compared with negative controls / GI50: CellTiter-Glo; for GI50: Homo sapiens, 60 h, 2.5 days, read-out: GI50 (drug concentration that results in 50% growth inhibition)
Experimental: SU-DHL-1 cells were seeded in 96-well plates at a density of 1×10^4 cells per well, in triplicate. Treated cells with DMSO or indicated serial dilutions of compounds for 2.5 days. Cell growth/survival was measured by using the CellTiter-Glo luminescent cell viability assay following the manufacturer's instructions (Promega) or CCK8 cell viability assay (Sigma). Data was analyzed by using the GraphPad Prism software, Error bars represent ±SD for triplicate experiments.
SU-DHL-1 cells were seeded in 96-well plates at a density of 1×10^4 cells per well, in triplicate. Treated cells with DMSO or indicated serial dilutions of compounds for 2.5 days. Cell growth/survival was measured by using the CellTiter-Glo luminescent cell viability assay. Data was analyzed by using the GraphPad Prism software, Error bars represent ±SD for triplicate experiments (left panel).
SU-DHL-1 cells were seeded in 96-well plates at a density of 5000 cells per well, in triplicate. The cells were treated with DMSO or indicated serial dilutions of compounds for 3 days. Cell growth was measured using the CellTiter-Glo luminescent cell viability assay. Data were analyzed using the GraphPad Prism.
(§1) SU-DHL-1 and NCI-3122 cells were treated with DMSO or indicated serial dilutions of compounds for 3 days. Data were analyzed using the GraphPad Prism.

[5] = target: T3, Phospho-ALK (Tyr1507) (Homo sapiens, UniProt Q9UM73); test: Western blot of ALK phosphorylation at Tyr1507 (ALK activity) in SU-DHL-1 cells; type: cell-based; settings: 3 nM, 16 h
T3 construct: endogenous in cells; host or cells: SU-DHL-1; the other entry of the earlier key: NPM1 (P06748, Nucleophosmin)
Experimental: Cells were washed with cold PBS once and lysed in 1× Laemmli loading buffer directly. Lysates were heated at 99° C. for […], and resolved on 4-15% precast SDS-PAGE (BIO-RAD) and transferred onto PVDF membrane. Membrane was blocked in 5% milk in Tris-buffered saline and Tween 20 (TBST) for 1 h at room temperature, followed by incubation with a primary antibody overnight at 4° C., and a horseradish peroxidase (HRP)-conjugated secondary antibody for 1 h at room temperature. The membrane was imaged by a ChemiDoc MP imaging system (BIO-RAD). Antibodies against GAPDH (abeam), Phospho-ALK (Tyr1507), ALK (Cell Signaling Technology), Tubulin (Santa Cruz) were purchased commercially.
SU-DHL-1 cells were seeded in 12-well plates at a density of 4×10^5/mL and treated with DMSO or indicated serial dilutions of compounds for 16 h. The NPM-ALK fusion protein levels were determined by Western blot and normalized against GPADH (right panel).

[6] = Standard PK study in mice, plasma concentrations; type: in vivo, male Swiss Albino mice; settings: single 50 mg/kg intraperitoneal (IP) injection, 30 min to 12 h
Experimental: Standard PK studies were conducted using male Swiss Albino mice. […] Error bars represent ±SD for triplicate samples.

[7] = test system: NCI-H3122 cells; test: Cell viability assay in NCI-H3122 cells; type: cell-based; settings: 3 days
Experimental: SU-DHL-1, NCI-H3122 and NCI-H2228 cells were cultured in RPMI-1640 medium supplemented with 10% fetal bovine serum, 50 μg/mL penicillin and streptomycin. Cells were cultured in a 37° C. incubator with 5% CO2.
as §1

[8] = target: T4, ALK fusion protein (Homo sapiens, UniProt Q9UM73); test: Western blot of ALK fusion protein levels in NCI-H3122 cells; type: cell-based
T4 construct: endogenous in cells; host or cells: NCI-H3122; the other entry of the earlier key: EML4 (Q9HC35, Echinoderm microtubule-associated protein-like 4)
T4 sequence (Q9UM73 with tags, fused parts or gaps): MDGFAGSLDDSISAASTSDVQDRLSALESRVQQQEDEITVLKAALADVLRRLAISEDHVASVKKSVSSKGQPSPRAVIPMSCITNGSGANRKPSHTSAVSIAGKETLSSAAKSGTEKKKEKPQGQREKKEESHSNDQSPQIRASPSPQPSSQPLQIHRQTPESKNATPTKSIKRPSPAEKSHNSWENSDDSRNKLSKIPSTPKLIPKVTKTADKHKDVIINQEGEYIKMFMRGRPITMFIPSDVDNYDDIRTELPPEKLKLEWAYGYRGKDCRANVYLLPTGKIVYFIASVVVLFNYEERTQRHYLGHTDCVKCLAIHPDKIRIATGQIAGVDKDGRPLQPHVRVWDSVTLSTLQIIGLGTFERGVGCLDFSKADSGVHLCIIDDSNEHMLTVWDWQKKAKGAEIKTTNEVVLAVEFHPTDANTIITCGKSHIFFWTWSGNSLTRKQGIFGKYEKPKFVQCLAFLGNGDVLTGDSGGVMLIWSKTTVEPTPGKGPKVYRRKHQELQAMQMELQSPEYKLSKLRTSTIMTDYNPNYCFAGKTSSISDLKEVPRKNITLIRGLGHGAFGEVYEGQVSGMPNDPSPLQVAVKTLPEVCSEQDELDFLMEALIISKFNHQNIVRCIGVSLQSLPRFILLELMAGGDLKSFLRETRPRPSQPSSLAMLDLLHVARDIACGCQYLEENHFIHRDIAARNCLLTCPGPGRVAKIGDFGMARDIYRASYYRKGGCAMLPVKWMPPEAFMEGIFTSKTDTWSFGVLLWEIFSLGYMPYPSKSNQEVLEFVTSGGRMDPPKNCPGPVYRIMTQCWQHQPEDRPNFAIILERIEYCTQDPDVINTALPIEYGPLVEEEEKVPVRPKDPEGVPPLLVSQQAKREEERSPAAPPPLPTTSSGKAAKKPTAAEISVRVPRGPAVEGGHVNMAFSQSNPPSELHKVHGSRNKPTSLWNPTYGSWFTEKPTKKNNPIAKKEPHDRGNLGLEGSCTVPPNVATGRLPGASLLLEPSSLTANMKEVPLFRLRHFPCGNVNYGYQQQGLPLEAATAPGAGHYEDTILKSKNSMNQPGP

T2 sequence (Q9UM73 with tags, fused parts or gaps): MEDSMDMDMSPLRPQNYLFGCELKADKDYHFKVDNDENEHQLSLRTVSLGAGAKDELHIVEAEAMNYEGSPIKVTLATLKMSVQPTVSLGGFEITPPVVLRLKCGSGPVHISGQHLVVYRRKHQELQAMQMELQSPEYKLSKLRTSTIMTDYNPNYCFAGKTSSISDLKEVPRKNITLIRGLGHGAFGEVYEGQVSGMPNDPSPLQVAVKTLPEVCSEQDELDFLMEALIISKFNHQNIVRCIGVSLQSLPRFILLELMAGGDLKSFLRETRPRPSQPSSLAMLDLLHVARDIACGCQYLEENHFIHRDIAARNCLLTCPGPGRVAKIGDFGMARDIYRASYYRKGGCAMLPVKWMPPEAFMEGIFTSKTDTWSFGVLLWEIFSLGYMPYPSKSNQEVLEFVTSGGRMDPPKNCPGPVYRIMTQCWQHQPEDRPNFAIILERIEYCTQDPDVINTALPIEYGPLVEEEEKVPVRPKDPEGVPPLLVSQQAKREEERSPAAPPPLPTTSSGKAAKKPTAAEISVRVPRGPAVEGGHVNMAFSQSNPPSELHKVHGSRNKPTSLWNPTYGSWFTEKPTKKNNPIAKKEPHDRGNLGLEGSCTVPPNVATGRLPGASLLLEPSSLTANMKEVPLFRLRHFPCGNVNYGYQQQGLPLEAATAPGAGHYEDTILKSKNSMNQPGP
T1 sequence (Q9UM73 1058-1620 limits assumed): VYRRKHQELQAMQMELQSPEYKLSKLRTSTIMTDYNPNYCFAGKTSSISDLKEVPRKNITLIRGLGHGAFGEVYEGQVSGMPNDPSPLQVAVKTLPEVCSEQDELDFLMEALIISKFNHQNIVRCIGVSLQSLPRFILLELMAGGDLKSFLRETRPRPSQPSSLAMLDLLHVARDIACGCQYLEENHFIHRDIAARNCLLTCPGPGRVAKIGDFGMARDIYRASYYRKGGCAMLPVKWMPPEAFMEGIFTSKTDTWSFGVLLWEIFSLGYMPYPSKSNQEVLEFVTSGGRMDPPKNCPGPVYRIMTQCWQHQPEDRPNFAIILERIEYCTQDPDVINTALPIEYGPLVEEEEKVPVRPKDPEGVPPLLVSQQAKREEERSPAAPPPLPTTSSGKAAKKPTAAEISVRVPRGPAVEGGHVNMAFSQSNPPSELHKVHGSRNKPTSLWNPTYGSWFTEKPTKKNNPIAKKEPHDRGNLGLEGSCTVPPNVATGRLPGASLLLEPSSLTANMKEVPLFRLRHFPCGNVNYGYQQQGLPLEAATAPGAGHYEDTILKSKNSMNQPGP

Row | SMILES | suppressing both ALK expression and ALK activity [1] | effect on EML4-ALK fusion protein levels, time dependence [2] | effect on EML4-ALK fusion protein levels, concentration dependence [2] | effect on NPM-ALK fusion protein levels, time dependence [3] | Dmax at 0.03 µM [3] [%] | reversibility of induced ALK fusion protein degradation after washout [3] | effect on NPM-ALK fusion protein levels, concentration dependence ([3]; 16 h) | rescue of induced NPM-ALK degradation by pomalidomide, MLN4924 and MG-132 [3] | cell viability inhibition compared with negative controls ([4]; 3 days) | GI50 [4] [nM] | inhibition of ALK activity (phosphorylation at Tyr1507) [5] | bioavailability in mice [6] | inhibition of cell viability [7] | Dmax at 0.5 µM ([8]; NCI-H3122, NCI-H3122 cells, 500 nM, Western blot, read-out: ALK fusion protein degradation, NCI-H3122 (500 nM)) [%] | effect on ALK fusion protein levels, concentration dependence ([8]; NCI-H3122 cells, 0, 50, 100, 200, 400 and 800 nM, 16 h) | effect on ALK fusion protein levels, concentration dependence ([3]; SU-DHL-1 cells, 0, 10, 20, 40, 80 and 160 nM, 16 h) | inhibition of cell viability ([4]; 3 days)
1 | Cc1cc(Nc2ncc(Cl)c(Nc3ccccc3S(=O)(=O)C(C)C)n2)c(OC(C)C)cc1C1CCN(CC(=O)NCCOCCOCCOCCOCCOCCNc2cccc3c2C(=O)N(C2CCC(=O)NC2=O)C3=O)CC1 (centres unmarked) [CZ40-77, 2-(4-(4-((5-Chloro-4-((2-(isopropylsulfonyl)phenyl)amino)pyrimidin-2-yl)amino)-5-isopropoxy-2-methylphenyl)piperidin-1-yl)-N-(17-((2-(2,6-dioxopiperidin-3-yl)-1,3-dioxoisoindolin-4-yl)amino)-3,6,9,12,15-pentaoxaheptadecyl)acetamide] | especially effective | time-dependently reduced | concentration-dependently reduced | time-dependently reduced | > 80 | Reversible | concentration-dependently reduced | significantly rescued | better cell viability inhibition | < 40 | strongly inhibited | – | – | – | – | – | –
2 | Cc1cc(Nc2ncc(Cl)c(Nc3ccccc3S(=O)(=O)C(C)C)n2)c(OC(C)C)cc1C1CCN(CC(=O)NCCNc2cccc3c2C(=O)N(C2CCC(=O)NC2=O)C3=O)CC1 (centres unmarked) [CZ40-78, 2-(4-(4-((5-Chloro-4-((2-(isopropylsulfonyl)phenyl)amino)pyrimidin-2-yl)amino)-5-isopropoxy-2-methylphenyl)piperidin-1-yl)-N-(2-((2-(2,6-dioxopiperidin-3-yl)-1,3-dioxoisoindolin-4-yl)amino)ethyl)acetamide] | especially effective | time-dependently reduced | concentration-dependently reduced | time-dependently reduced | > 80 | Reversible | concentration-dependently reduced | significantly rescued | better cell viability inhibition | < 40 | strongly inhibited | Bioavailable | – | – | – | – | –
3 | Cc1cc(Nc2ncc(Cl)c(Nc3ccccc3S(=O)(=O)C(C)C)n2)c(OC(C)C)cc1C1CCN(C(=O)CCCCC(=O)N[C@H](C(=O)N2C[C@H](O)C[C@H]2C(=O)N[C@@H](C)c2ccc(-c3scnc3C)cc2)C(C)(C)C)CC1 [HC58-100] | especially effective | – | – | – | – | – | – | – | – | – | – | – | significantly inhibited | > 80 | concentration-dependently reduced | concentration-dependently reduced | significantly inhibited
